Experimental findings from patent US6004960A, “Pyridazinones as inhibitors of cyclooxygenase-2” (Merck Frosst Canada, Inc., priority 1998, dated 1999) are described below.

The target in assay [1] is T1, COX-2 (Homo sapiens, UniProt P35354).
T1 sequence (P35354 18-604): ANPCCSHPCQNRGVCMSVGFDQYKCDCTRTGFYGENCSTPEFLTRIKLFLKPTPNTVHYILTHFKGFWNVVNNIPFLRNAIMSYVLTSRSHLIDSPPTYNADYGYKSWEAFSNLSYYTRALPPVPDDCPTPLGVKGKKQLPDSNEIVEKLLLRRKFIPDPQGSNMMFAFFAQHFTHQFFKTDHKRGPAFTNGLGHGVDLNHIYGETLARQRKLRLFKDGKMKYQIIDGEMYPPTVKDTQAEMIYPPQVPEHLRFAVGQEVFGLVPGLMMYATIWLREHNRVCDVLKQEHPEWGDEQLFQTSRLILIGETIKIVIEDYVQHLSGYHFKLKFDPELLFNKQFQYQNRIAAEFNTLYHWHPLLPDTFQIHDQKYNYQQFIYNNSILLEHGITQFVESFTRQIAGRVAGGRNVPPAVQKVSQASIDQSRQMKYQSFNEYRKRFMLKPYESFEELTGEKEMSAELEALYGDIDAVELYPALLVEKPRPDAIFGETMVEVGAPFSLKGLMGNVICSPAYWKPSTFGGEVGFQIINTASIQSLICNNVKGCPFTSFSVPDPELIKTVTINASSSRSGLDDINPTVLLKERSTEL
The assay is described as follows: Whole cell assay for COX-2 using CHO transfected cell line (CHO [hCOX-2]), PGE2. Type of assay: cell-based. Also on record: expressed in transfected cells; host or cells: CHO (Chinese hamster ovary), stably transfected with pCDNAIII vector; CHO [hCOX-2]. The following applies: CHO [hCOX-2] cells, 10 μM AA. As to the method: Chinese hamster ovary (CHO) cell lines which have been stably transfected with an eukaryotic expression vector pCDNAIII containing either the human COX-1 or COX-2 cDNA's are used for the assay. These cell lines are referred to as CHO [hCOX-1] and CHO [hCOX-2], respectively. […] Drugs to be tested are dissolved in DMSO to 66.7-fold the highest test drug concentration. […] Cells (0.3×10^6 cells in 200 p) are preincubated with 3 AIl of the test drug or DMSO vehicle for 15 min at 37° C. […] Cells are then challenged in the presence or absence of drug with the AA/HBSS solution to yield a final concentration of 0.5 μM AA in the CHOhCOX-1] assay and a final concentration of 10 μM AA in the CHO [hCOX-2] assay. […] The samples are centrifuged at 300×g at 4° C. for 10 min, and an aliquot of the clarified supernatant is appropriately diluted for the determination of PGE2 levels using an enzyme-liked immunoassay for PGE2 (Correlate PGE2 enzyme immunoassay kit, Assay Designs, Inc.). Cyclooxygenase activity in the absence of test compounds is determined as the difference in PGE2 levels of cells challenged with arachidonic acid versus the PGE2 levels in cells mock-challenged with ethanol vehicle. Inhibition of PGE2 synthesis by test compounds is calculated as a percentage of the activity in the presence of drug versus the activity in the positive control samples.
(§1) In the assay, inhibition is determined by measuring the amount of prostaglandin E2 (PGE2) synthesized in the presence of arachidonic acid, cyclooxygenase-I or cyclooxygenase-2 and a putative inhibitor.

A further assay concerns the target COX-1 (Homo sapiens, UniProt P23219). Kind of assay: Assay of COX-1 activity from U937 cell microsomes. The class given is biochemical. Also noted: Assay of COX-1 Activity from U937 cell microsomes; endogenous in cells; host or cells: U937 cells, 100,000×g microsomal pellet. The following applies: PGE2, read-out: COX-1 (IC50 μM) U-937. The procedure:
Assay of COX-1 Activity from U937 cell microsomes
U 937 cells are pelleted by centrifugation at 500×g for 5 min and washed once with phosphate-buffered saline and repelleted. […] The cell suspension is sonicated 4 times for 10 sec and is centrifuged at 10,000×g for 10 min at 4° C. The supernatant is centrifuged at 100,000×g for 1 hr at 4° C. The 100,000×g microsomal pellet is resuspended in 0.1 M Tris-HCl, pH 7.4, 10 mM EDTA to approximately 7 mg protein/ml and stored at -80° C.
Microsomal preparations are thawed immediately prior to use, subjected to a brief sonication, and then diluted to a protein concentration of 125 μg/ml in 0.1 M Tris-HCl buffer, pH 7.4 containing 10 mM EDTA, 0.5 mM phenol, 1 mM reduced glutathione and 1 μM hematin. Assays are performed in duplicate in a final volume of 250 pl. Initially, 5 µl of DMSO vehicle or drug in DMSO are added to 20 μl of 0.1 M Tris-HCl buffer, pH 7.4 containing 10 mM EDTA in wells of a 96-deepwell polypropylene titre plate. 200 μl of the microsomal preparation are then added and pre-incubated for 15 min at room temperature before addition of 25 μl of […] in 0.1 M Tris-HCl and 10 mM EDTA, pH 7.4. Samples are incubated for 40 min at room temperature and the reaction is stopped by the addition of 25 pl of 1 N HCl. Samples are neutralized with 25 μl of 1 N NaOH prior to quantitation of PGE2 content by radioimmunoassay (Dupont-NEN or Amersham assay kits). Cyclooxygenase activity is defined as the difference between PGE2 levels in samples incubated in the presence of arachidonic acid and ethanol vehicle.
as §1

Assay [2] concerns the target T1, COX-2. The assay is described as follows: Human whole blood assay, COX-2 (LPS-induced PGE2 production). Type of assay: cell-based. The following applies: LPS-induced PGE2, 24 hours at 37° C, read-out: COX-2 (IC50 μM) HWB. Also noted: incubation of human whole blood with LPS, which induces COX-2; from tissue; host or cells: fresh human whole blood (volunteers), incubated with LPS. The text has this: As well, platelets in whole blood contain a large amount of the COX-1 enzyme. Immediately following blood clotting, platelets are activated through a thrombin-mediated mechanism. This reaction results in the production of thromboxane B2 (TxB2) via activation of COX-1. Thus, the effect of test compounds on TxB2 levels following blood clotting can be examined and used as an index for COX-1 activity. Therefore, the degree of selectivity by the test compound can be determined by measuring the levels of PGE2 after LPS induction (COX-2) and […] following blood clotting (COX-1) in the same assay.
A. COX-2 (LPS-induced PGE2 production)
Fresh blood is collected in heparinized tubes by venipuncture from both male and female volunteers. The subjects have no apparent inflammatory conditions and have not taken any NSAIDs for at least 7 days prior to blood collection. Plasma is immediately obtained from a 2mL blood aliquot to use as blank (basal levels of PGE2). The remaining blood is incubated with LPS (100 μg/ml final concentration, Sigma Chem, #L-2630 from E. coli; diluted in 0.1% BSA (Phosphate buffered saline) for 5 minutes at room temperature. Five hundred μL aliquots of blood are incubated with either 2μL of vehicle (DMSO) or 2 μL of a test compound at final concentrations varying from 10nM to 30 μM for 24 hours at 37° C. At the end of the incubation, the blood is centrifuged at 12,000×g for 5 minutes to obtain plasma. A 100 μL aliquot of plasma is mixed with 400 μL of methanol for protein precipitation. The supernatant is obtained and is assayed for PGE2 using a radioimmunoassay kit (Amersham, RPA#530) after conversion of PGE2 to its methyl oximate derivative according to the manufacturer's procedure. […]

Broadly, the IC50 is the concentration that gives 50% inhibition.

COX-1, sequence (P23219 24-599): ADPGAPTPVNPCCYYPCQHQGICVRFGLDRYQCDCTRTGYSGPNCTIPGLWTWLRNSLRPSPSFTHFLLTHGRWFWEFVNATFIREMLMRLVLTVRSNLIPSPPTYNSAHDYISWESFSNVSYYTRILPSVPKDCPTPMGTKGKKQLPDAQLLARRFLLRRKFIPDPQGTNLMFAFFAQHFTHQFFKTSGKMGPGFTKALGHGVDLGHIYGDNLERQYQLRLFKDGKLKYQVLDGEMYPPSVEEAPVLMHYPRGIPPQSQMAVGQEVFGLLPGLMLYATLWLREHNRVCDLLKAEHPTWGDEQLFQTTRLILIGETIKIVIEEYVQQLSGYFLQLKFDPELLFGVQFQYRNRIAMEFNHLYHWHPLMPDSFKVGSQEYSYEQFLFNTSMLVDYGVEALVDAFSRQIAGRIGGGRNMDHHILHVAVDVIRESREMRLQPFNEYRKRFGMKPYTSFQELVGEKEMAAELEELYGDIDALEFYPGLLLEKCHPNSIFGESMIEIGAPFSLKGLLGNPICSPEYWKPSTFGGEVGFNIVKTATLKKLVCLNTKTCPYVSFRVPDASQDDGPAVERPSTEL

Take `COC(=O)c1ccc(Cn2ncc(-c3ccc(S(C)(=O)=O)cc3)c(-c3ccccc3)c2=O)cc1` [Example 13, 2-(4-Carbomethoxybenzyl)-5-(4-methylsulfonyl)phenyl-4-phenyl-2H-pyridazin-3-one]: the IC50 at COX-2 [1] was 2 µM; at COX-1, more than 10 µM; on COX-2 [2], more than 33 µM.
Regarding `CS(=O)(=O)c1ccc(-c2cnn(Cc3cccc(F)c3)c(=O)c2-c2ccccc2)cc1` [Example 15, 2-(3-Fluorobenzyl)-5-(4-methylsulfonyl)phenyl-4-phenyl-2H-pyridazin-3-one], the IC50 against COX-2 [1] is 0.009 µM; on COX-1 it was more than 10 µM; on COX-2 [2], 0.8 µM.
As to `CS(=O)(=O)c1ccc(-c2cnn(Cc3ccc(F)cc3)c(=O)c2-c2ccc(F)cc2)cc1` [Example 16, 2-(4-Fluorobenzyl)-4-(4-fluorophenyl)-5-(4-methylsulfonyl)phenyl-2H-pyridazin-3-one], the values for the IC50 on COX-2 [1], at COX-1 and on COX-2 [2] were 0.053 µM, 3 to 10 µM and 1.1 µM, respectively.
Consider `CS(=O)(=O)c1ccc(-c2cnn(Cc3ccccc3F)c(=O)c2-c2ccccc2)cc1` [Example 17, 2-(2-Fluorobenzyl)-5-(4-methylsulfonyl)phenyl-4-phenyl-2H-pyridazin-3-one], for which the IC50 on COX-1 is more than 10 µM.
The same measure, in the same setting: then `CS(=O)(=O)c1ccc(-c2cnn(C3CC3)c(=O)c2-c2ccc(F)cc2)cc1` [Example 18, 2-Cyclopropyl-5-(4-methylsulfonyl)phenyl-4-(4-fluorophenyl)-2H-pyridazin-3-one], with approximately 10 µM; and `CS(=O)(=O)c1ccc(-c2cnn(CCC(F)(F)F)c(=O)c2-c2ccc(F)cc2)cc1` [Example 19, 4-(4-Fluorophenyl)-5-(4-methylsulfonyl)phenyl-2-(3,3,3-trifluoropropyl)-2H-pyridazin-3-one], with more than 10 µM.
Consider `CS(=O)(=O)c1ccc(-c2cnn(Cc3ccncc3)c(=O)c2-c2ccc(F)cc2)cc1` [Example 20, 4-(4-Fluorophenyl)-5-(4-methylsulfonyl)phenyl-2-(4-pyridylmethyl)-2H-pyridazin-3-one], for which the IC50 at COX-2 [1] is 1.4 µM; at COX-1 it was more than 10 µM; on COX-2 [2] it was 16.8 µM.
For `CS(=O)(=O)c1ccc(-c2cnn(Cc3ccccc3)c(=O)c2Oc2ccc(Cl)cn2)cc1` [Example 23, 2-Benzyl-4-(5-chloro-2-pyridyloxy)-5-(4-methylsulfonyl)phenyl-2H-pyridazin-3-one] the same measures were 0.26 µM, 3 to 10 µM and 0.9 µM.
Turning to `CC(C)(C)Cn1ncc(-c2ccc(S(C)(=O)=O)cc2)c(-c2ccc(F)cc2)c1=O` [Example 24, 2-(2,2-Dimethylpropyl)-4-(4-fluorophenyl)-5-(4-methylsulfonyl)phenyl-2H-pyridazin-3-one], the results for the IC50 against COX-2 [1], at COX-1 and on COX-2 [2] were 0.16 µM, approximately 10 µM and 2.4 µM, respectively.
Regarding `CC(c1ccccc1)n1ncc(-c2ccc(S(C)(=O)=O)cc2)c(-c2ccc(F)cc2)c1=O` (stereo not shown) [Example 25, 4-(4-Fluorophenyl)-5-(4-methylsulfonyl)phenyl-2-(1-phenyl-ethyl)-2H-pyridazin-3-one], the IC50 was 0.49 µM against COX-2 [1], approximately 1 µM at COX-1 and 1.4 µM on COX-2 [2].
For `CS(=O)(=O)c1ccc(-c2cnn(-c3cccc(F)c3)c(=O)c2-c2ccccc2)cc1` [Example 26, 2-(3-Fluorophenyl)-5-(4-methylsulfonyl)phenyl-4-phenyl-2H-pyridazin-3-one] the same measures were 0.065 µM, more than 10 µM and 5.5 µM.
Take `CS(=O)(=O)c1ccc(-c2cnn(Cc3cccs3)c(=O)c2-c2ccc(F)cc2)cc1` [Example 27, 4-(4-Fluorophenyl)-5-(4-methylsulfonyl)phenyl-2-(thiophen-2-yl-methyl)-2H-pyridazin-3-one]: on COX-1, the IC50 was approximately 1 µM.
Regarding `CS(=O)(=O)c1ccc(-c2cnn(CCc3ccccc3)c(=O)c2-c2ccc(F)cc2)cc1` [Example 33, 2-(2-Phenethyl)-4-(4-fluorophenyl)-5-(4-methylsulfonyl)phenyl-2H-pyridazin-3-one], the IC50 at COX-1 was more than 10 µM; on COX-2 [2] it was 8.6 µM.
On to `CS(=O)(=O)c1ccc(-c2cnn(Cc3ccccc3)c(=O)c2Oc2ccc(Br)cn2)cc1` [Example 34, 2-Benzyl-4-(5-bromo-2-pyridyloxy)-5-(4-methylsulfonyl)phenyl-2H-pyridazin-3-one], for which the IC50 on COX-1 was more than 10 µM; at COX-2 [2], 0.86 µM.
Turning to `Cc1ccc(-c2c(-c3ccc(S(C)(=O)=O)cc3)cnn(Cc3ccccc3)c2=O)cc1` [Example 35, 2-Benzyl-4-(4-methylphenyl)-5-(4-methylsulfonyl)phenyl-2H-pyridazin-3-one], the half-maximal inhibitory concentration (IC50) at COX-2 [2] was 0.35 µM.
With `CS(=O)(=O)c1ccc(-c2cnn(CC3CCCCC3)c(=O)c2-c2ccc(F)cc2)cc1` [Example 36, 2-Cyclohexylmethyl-4-(4-fluorophenyl)-5-(4-methylsulfonyl)phenyl-2H-pyridazin-3-one], the IC50 on COX-1 lay within 0.3 to 1 µM.
